Reference: US10414811B2, “Protease-resistant lipidated GLP-1 analogs” (MEDIMMUNE LIMITED, priority 2015, dated 2019)
pEC50: −log10 of the molar value. Read-outs that look alike come from different tables or passages of the source. Numbered stars: 1 amine (or outer) side, 2 acyl side, 3 side chain; on linkers, the order of the positions; unused ones are H or OH. Square brackets hold non-standard residues; d marks the D form. Side chains are listed from the residue outwards. Peptide text beside a SMILES is read from it. * marks the point of attachment. γGlu = O=C(O)[C@H](CCC(=O)[*:2])N[*:1]; αMeF = C[C@](N)(Cc1ccccc1)C(=O)O; αMeK = C[C@](N)(CCCCN)C(=O)O; Lauroyl = CCCCCCCCCCCC(=O)*; αMeS = C[C@](N)(CO)C(=O)O; AEEA = NCCOCCOCC(=O)O; Aib = CC(C)(N)C(=O)O

What was measured:
Type in all cases: cell-based
[1] = biological target: T1, human GLP-1 receptor (GLP-1R) (Homo sapiens, UniProt P43220); experiment: cAMP assay, human GLP-1R cells; details: for EC50: mean of n1 and n2, read-out: Mean pM GLP-1R
T1 construct: expressed in transfected cells
T1 sequence (P43220 24-463): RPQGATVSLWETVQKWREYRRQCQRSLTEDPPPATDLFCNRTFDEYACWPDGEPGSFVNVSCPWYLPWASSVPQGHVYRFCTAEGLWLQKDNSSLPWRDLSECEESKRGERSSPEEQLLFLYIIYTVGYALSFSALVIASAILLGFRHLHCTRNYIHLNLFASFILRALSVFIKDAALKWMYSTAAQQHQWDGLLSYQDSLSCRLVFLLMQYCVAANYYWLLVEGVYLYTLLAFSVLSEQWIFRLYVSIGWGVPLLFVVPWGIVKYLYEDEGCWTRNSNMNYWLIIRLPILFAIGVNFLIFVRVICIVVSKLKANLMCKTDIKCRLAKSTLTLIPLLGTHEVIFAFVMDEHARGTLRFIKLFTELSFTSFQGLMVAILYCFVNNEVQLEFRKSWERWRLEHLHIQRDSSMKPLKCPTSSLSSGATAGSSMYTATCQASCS
Summary of the method: (§1)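 Peptide-stimulated cAMP measured by two-step HTRF after a 30 min room-temperature incubation with receptor-expressing cells (hGLP-1R, hGIPR at 1×10^5 cells/ml; hGCGR at 2×10^5 cells/ml). Duplicate dilutions; EC50 from 4-parameter logistic fit of % Delta F.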

[2] = biological target: T2, human glucagon receptor (GCGR) (Homo sapiens, UniProt P47871); experiment: cAMP assay, human GCGR cells
T2 construct: expressed in transfected cells
T2 sequence (P47871 26-477): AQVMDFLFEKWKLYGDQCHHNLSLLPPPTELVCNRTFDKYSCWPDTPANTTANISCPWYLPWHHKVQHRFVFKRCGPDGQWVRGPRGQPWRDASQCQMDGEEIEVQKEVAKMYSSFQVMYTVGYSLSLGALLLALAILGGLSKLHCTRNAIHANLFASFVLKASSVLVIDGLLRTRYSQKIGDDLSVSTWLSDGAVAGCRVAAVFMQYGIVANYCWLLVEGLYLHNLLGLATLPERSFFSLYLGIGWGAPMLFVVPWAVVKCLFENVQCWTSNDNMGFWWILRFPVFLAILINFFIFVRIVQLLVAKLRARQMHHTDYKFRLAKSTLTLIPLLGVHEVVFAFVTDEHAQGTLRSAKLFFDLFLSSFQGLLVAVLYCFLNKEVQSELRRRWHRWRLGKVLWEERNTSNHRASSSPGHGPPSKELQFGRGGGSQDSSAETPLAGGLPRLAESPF
Summary of the method: as §1

[3] = biological target: T3, human glucose-dependent insulinotropic peptide receptor (GIPR) (Homo sapiens, UniProt P48546); experiment: cAMP assay, human GIPR cells
T3 construct: expressed in transfected cells
T3 sequence (P48546 22-466): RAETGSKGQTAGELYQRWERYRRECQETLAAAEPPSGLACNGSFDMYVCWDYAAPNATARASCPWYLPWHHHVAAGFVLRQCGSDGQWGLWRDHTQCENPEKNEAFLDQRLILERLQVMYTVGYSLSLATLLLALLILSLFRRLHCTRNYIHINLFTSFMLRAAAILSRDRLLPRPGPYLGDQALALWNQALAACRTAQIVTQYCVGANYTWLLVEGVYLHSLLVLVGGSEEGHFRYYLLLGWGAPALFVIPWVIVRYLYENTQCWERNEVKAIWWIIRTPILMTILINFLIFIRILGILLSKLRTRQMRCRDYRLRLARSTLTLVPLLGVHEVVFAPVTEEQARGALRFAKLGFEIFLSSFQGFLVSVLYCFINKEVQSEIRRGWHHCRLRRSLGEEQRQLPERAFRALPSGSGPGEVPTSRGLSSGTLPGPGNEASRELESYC
Summary of the method: as §1

GLP-1R (INS1e assay) = biological target: T4, GLP-1R (INS1e assay) (Rattus norvegicus, UniProt P32301); experiment: INS1e assay, cAMP activity at GLP-1R; details: for EC50: mean of n1 and n2, read-out: INS1e assay EC50 Mean pM GLP-1R
T4 construct: endogenous in cells; host or cells: INS-1E cells
T4 sequence (P32301 22-463): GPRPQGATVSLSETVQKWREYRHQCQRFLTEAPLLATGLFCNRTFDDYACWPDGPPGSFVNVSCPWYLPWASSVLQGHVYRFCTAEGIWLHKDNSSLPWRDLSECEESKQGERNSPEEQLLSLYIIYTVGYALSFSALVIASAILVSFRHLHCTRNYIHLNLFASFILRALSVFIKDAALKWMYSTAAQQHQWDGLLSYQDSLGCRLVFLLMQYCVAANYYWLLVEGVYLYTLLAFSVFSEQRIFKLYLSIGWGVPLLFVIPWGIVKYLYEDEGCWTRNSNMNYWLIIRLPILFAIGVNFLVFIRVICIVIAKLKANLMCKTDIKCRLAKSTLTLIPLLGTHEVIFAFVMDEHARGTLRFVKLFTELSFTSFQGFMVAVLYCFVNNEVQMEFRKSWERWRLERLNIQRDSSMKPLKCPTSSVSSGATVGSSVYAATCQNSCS
Summary of the method: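 cAMP was quantified by two-step HTRF, using anti-cAMP cryptate donor and cAMP-d2 acceptor, each diluted 1/20 in conjugate and lysis buffer. EC50 values of the synthetic peptides were derived from the cAMP readout.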

[4] = mono-lipidated peptides, replicate n1, read-out: INS1e assay EC50 GLP-1R n1
[5] = mono-lipidated peptides, replicate n2, read-out: INS1e assay EC50 GLP-1R n2
[6] = first run (n1), cAMP activity, read-out: Primary assay EC50 GLP-1R n1
[7] = second run (n2), cAMP activity, read-out: Primary assay EC50 GLP-1R n2
[8] = first run (n1), cAMP activity of substituted and mono-lipidated peptides, read-out: Primary assay EC50 Gluc-R
[9] = second run (n2), cAMP activity, read-out: Primary assay EC50 Gluc-R
[10] = first run (n1), cAMP activity, read-out: Primary assay EC50 GIP-R
[11] = second run (n2), cAMP activity, read-out: Primary assay EC50 GIP-R

| EC50 [1] [pM] | EC50 (GLP-1R (INS1e assay); mono-lipidated peptides) [pM] | pEC50 (GLP-1R (INS1e assay); [4]) | pEC50 (GLP-1R (INS1e assay); [5]) | pEC50 [1, 6] | pEC50 [1, 7] | pEC50 [2, 8] | pEC50 [2, 9] | pEC50 [3, 10] | pEC50 [3, 11] | further results | Structure (SMILES) |
| --- | --- | --- | --- | --- | --- | --- | --- | --- | --- | --- | --- |
| 29.5 | 426 | 9.45 | 9.30 | – | – | – | – | – | – | pEC50 ([1]; cAMP assay, first determination (n1), read-out: Primary assay EC50 GLP-1R n1): 10.33; pEC50 ([1]; cAMP assay, second determination (n2), read-out: Primary assay EC50 GLP-1R n2): 10.92; pEC50 ([2]; cAMP assay, first determination (n1), read-out: Primary assay EC50 Gluc-R (n1)): ≤ 7.59; pEC50 ([2]; cAMP assay, second determination (n2), read-out: Primary assay EC50 Gluc-R (n2)): ≤ 7.59; pEC50 ([3]; cAMP assay, first determination (n1), read-out: Primary assay EC50 GIP-R (n1)): ≤ 7.59; pEC50 ([3]; cAMP assay, second determination (n2), read-out: Primary assay EC50 GIP-R (n2)): ≤ 7.59 | CCCCCCCCCCCCCCCCCC(=O)N[C@@H](CCC(=O)N[C@@H](CCC(=O)N[C@@H](CCC(=O)NCCCC[C@H](NC(=O)[C@@H](NC(=O)[C@@H](NC(=O)[C@](C)(Cc1ccccc1)NC(=O)[C@H](C)NC(=O)[C@@H](NC(=O)[C@](C)(Cc1ccccc1)NC(=O)[C@H](CCC(=O)O)NC(=O)[C@](C)(CCCCN)NC(=O)[C@H](C)NC(=O)[C@H](C)NC(=O)[C@H](CCC(=O)O)NC(=O)CNC(=O)[C@H](CCC(=O)O)NC(=O)[C@H](CC(C)C)NC(=O)[C@](C)(Cc1ccccc1)NC(=O)[C@H](CO)NC(=O)[C@](C)(CO)NC(=O)[C@@H](NC(=O)[C@H](CC(=O)O)NC(=O)[C@H](CO)NC(=O)[C@@H](NC(=O)[C@](C)(Cc1ccccc1)NC(=O)[C@H](CO)NC(=O)CNC(=O)[C@H](CCC(=O)O)NC(=O)C(C)(C)NC(=O)[C@@H](N)Cc1c[nH]cn1)[C@@H](C)O)C(C)C)[C@@H](C)CC)C(C)C)C(C)C)C(=O)NCC(=O)NCC(N)=O)C(=O)O)C(=O)O)C(=O)O [compound 184] |
| 20.8 | 144 | 9.94 | 9.76 | 10.52 | 10.92 | ≤ 7.57 | ≤ 7.57 | ≤ 7.57 | ≤ 7.57 | – | CCCCCCCCCCCCCCCCCC(=O)NCCOCCOCC(=O)NCCOCCOCC(=O)NCCCC[C@H](NC(=O)[C@@H](NC(=O)[C@@H](NC(=O)[C@](C)(Cc1ccccc1)NC(=O)[C@H](C)NC(=O)[C@@H](NC(=O)[C@](C)(Cc1ccccc1)NC(=O)[C@H](CCC(=O)O)NC(=O)[C@](C)(CCCCN)NC(=O)[C@H](C)NC(=O)[C@H](C)NC(=O)[C@H](CCC(=O)O)NC(=O)CNC(=O)[C@H](CCC(=O)O)NC(=O)[C@H](CC(C)C)NC(=O)[C@](C)(Cc1ccccc1)NC(=O)[C@H](CO)NC(=O)[C@](C)(CO)NC(=O)[C@@H](NC(=O)[C@H](CC(=O)O)NC(=O)[C@H](CO)NC(=O)[C@@H](NC(=O)[C@](C)(Cc1ccccc1)NC(=O)[C@H](CO)NC(=O)CNC(=O)[C@H](CCC(=O)O)NC(=O)C(C)(C)NC(=O)[C@@H](N)Cc1c[nH]cn1)[C@@H](C)O)C(C)C)[C@@H](C)CC)C(C)C)C(C)C)C(=O)NCC(=O)NCC(N)=O [compound 189] |
| 7.2 | 44.1 | 10.40 | 10.31 | 11.01 | 11.33 | ≤ 7.59 | ≤ 7.59 | ≤ 7.59 | ≤ 7.59 | – | CCCCCCCCCCCCCCCCCC(=O)NCCOCCOCC(=O)NCCOCCOCC(=O)NCCOCCOCC(=O)NCCCC[C@H](NC(=O)[C@@H](NC(=O)[C@@H](NC(=O)[C@](C)(Cc1ccccc1)NC(=O)[C@H](C)NC(=O)[C@@H](NC(=O)[C@](C)(Cc1ccccc1)NC(=O)[C@H](CCC(=O)O)NC(=O)[C@](C)(CCCCN)NC(=O)[C@H](C)NC(=O)[C@H](C)NC(=O)[C@H](CCC(=O)O)NC(=O)CNC(=O)[C@H](CCC(=O)O)NC(=O)[C@H](CC(C)C)NC(=O)[C@](C)(Cc1ccccc1)NC(=O)[C@H](CO)NC(=O)[C@](C)(CO)NC(=O)[C@@H](NC(=O)[C@H](CC(=O)O)NC(=O)[C@H](CO)NC(=O)[C@@H](NC(=O)[C@](C)(Cc1ccccc1)NC(=O)[C@H](CO)NC(=O)CNC(=O)[C@H](CCC(=O)O)NC(=O)C(C)(C)NC(=O)[C@@H](N)Cc1c[nH]cn1)[C@@H](C)O)C(C)C)[C@@H](C)CC)C(C)C)C(C)C)C(=O)NCC(=O)NCC(N)=O [compound 190] |
| 27.9 | 1140 | 8.86 | 9.05 | 10.39 | 10.82 | ≤ 7.59 | ≤ 7.59 | ≤ 7.59 | ≤ 7.59 | – | CC[C@H](C)[C@H](NC(=O)[C@](C)(Cc1ccccc1)NC(=O)[C@H](CCC(=O)O)NC(=O)[C@](C)(CCCCN)NC(=O)[C@H](C)NC(=O)[C@H](C)NC(=O)[C@H](CCC(=O)O)NC(=O)CNC(=O)[C@H](CCC(=O)O)NC(=O)[C@H](CC(C)C)NC(=O)[C@](C)(Cc1ccccc1)NC(=O)[C@H](CO)NC(=O)[C@](C)(CO)NC(=O)[C@@H](NC(=O)[C@H](CC(=O)O)NC(=O)[C@H](CO)NC(=O)[C@@H](NC(=O)[C@](C)(Cc1ccccc1)NC(=O)[C@H](CO)NC(=O)CNC(=O)[C@H](CCC(=O)O)NC(=O)C(C)(C)NC(=O)[C@@H](N)Cc1c[nH]cn1)[C@@H](C)O)C(C)C)C(=O)N[C@@H](C)C(=O)N[C@@](C)(Cc1ccccc1)C(=O)N[C@H](C(=O)N[C@H](C(=O)N[C@@H](CCCCNC(=O)COCCOCCNC(=O)COCCOCCNC(=O)CCCCCCCCCCCCCCCCC(=O)O)C(=O)NCC(=O)NCC(N)=O)C(C)C)C(C)C [compound 198] |
| – | – | – | – | – | – | – | – | – | – | pEC50 ([1]; bis-lipidated peptides, replicate n1, read-out: Primary assay EC50 GLP-1R n1): 11.66; pEC50 ([1]; bis-lipidated peptides, replicate n2, read-out: Primary assay EC50 GLP-1R n2): 11.64; pEC50 ([2]; bis-lipidated peptides, first replicate, read-out: Primary assay EC50 Gluc-R (n1)): ≤ 7.67; pEC50 ([3]; bis-lipidated peptides, first replicate, read-out: Primary assay EC50 GIP-R (n1)): ≤ 7.67; EC50 (GLP-1R (INS1e assay); bis-lipidated peptides): 94 pM; pEC50 (GLP-1R (INS1e assay); bis-lipidated peptides, replicate n1, read-out: INS1e assay EC50 GLP-1R n1): 10.00; pEC50 (GLP-1R (INS1e assay); bis-lipidated peptides, replicate n2, read-out: INS1e assay EC50 GLP-1R n2): 10.06 | CCCCCCCCCCCC(=O)N[C@@H](CCC(=O)NCCOCCOCC(=O)NCCOCCOCC(=O)NCCCC[C@H](NC(=O)[C@H](C)NC(=O)[C@@H](NC(=O)[C@H](Cc1ccc(OC)cc1)NC(=O)[C@H](CCC(=O)O)NC(=O)[C@](C)(CCCCN)NC(=O)[C@H](C)NC(=O)[C@H](C)NC(=O)[C@H](CCC(=O)O)NC(=O)CNC(=O)[C@H](CCC(=O)O)NC(=O)[C@H](CC(C)C)NC(=O)[C@H](CCCCNC(=O)COCCOCCNC(=O)COCCOCCNC(=O)CC[C@H](NC(=O)CCCCCCCCCCC)C(=O)O)NC(=O)[C@H](CO)NC(=O)[C@](C)(CO)NC(=O)[C@@H](NC(=O)[C@H](CC(=O)O)NC(=O)[C@H](CO)NC(=O)[C@@H](NC(=O)[C@](C)(Cc1ccccc1)NC(=O)[C@H](CO)NC(=O)CNC(=O)[C@H](CCC(=O)O)NC(=O)C(C)(C)NC(=O)[C@@H](N)Cc1c[nH]cn1)[C@@H](C)O)C(C)C)[C@@H](C)CC)C(=O)N[C@H](C(=O)N[C@H](C(=O)N[C@@H](CCC(=O)O)C(=O)NCC(=O)NCC(N)=O)C(C)C)C(C)C)C(=O)O [compound 406] (H-H[Aib]EGS[αMeF]TSDV[αMeS]SK([AEEA-AEEA-γGlu-Lauroyl])LEGEAA[αMeK]EY(Me)IAK([AEEA-AEEA-γGlu-Lauroyl])VVEGG-NH2; N-terminus assumed) |
